Measured values from patent US10144736B2 (Gilead Sciences, Inc., priority 2006, dated 2018).
Read-outs that look alike come from different tables or passages of the source.

Legend:
Huh-7 HCV replicon cells = assay: CC50 assay (CellTiter-Glo) in Huh-7 HCV replicon cells; format: cell-based, human; conditions: 3 days incubation, 50% cytostatic concentration
Protocol: (§1) The anti HCV activity of specifically substituted pteridine derivatives was tested in a human hepatoma Huh-7 cell line harbouring a HCV replicon. The assay comprised the following steps:
(§2) Step 1: compound preparation and serial dilution involved the following alternatives, depending upon the water solubility of pteridine derivative being tested:
(§3) • 1. with respect to water soluble pteridine derivatives, 500 μL of solution in cell media (DMEM, 10% FBS, P/S, L-Glutamine) was prepared with a concentration that is twice the concentration of the starting final serial dilution concentration. 150 μL of the solution was added to the pre-specified wells in column 1 of a 96-well cell culture plate (PerkinElmer, white plate, cat. #6005181, for EC50 assay; black plate, cat. #6005182 for CC50 assay). The rest of the plate, i.e. columns 2-12, was filled with 100 μL of cell media. The plate was then placed on a Precision 2000 Workstation in order to start serial dilution. Pteridine compounds were diluted three times each step from column 1 to column 10. Column 11 was used as a blank control (no pteridine compound added). • 2. With respect to poorly water soluble pteridine derivatives, DMSO was used as a solvent, and serial dilution was performed in 50% DMSO in water, in a 384-well plate. A solution containing the relevant compound at 100-fold the concentration of the starting final serial dilution concentration was prepared in 50% DMSO in water and added to the pre-specified wells in column 1 of a polypropylene 384-well plate. This plate was then placed on a Precision 2000 Workstation in order to start serial dilution. After serial dilution, 2 μL of the solution was transferred from the 384-well plate to a 96-well cell culture plate containing 100 μL of cell media on a Biomek FX Workstation. The DMSO concentration in the final assay condition was 0.5% after cells have been added to the plate and the total volume in each well was brought to 200 μL. Step 2: to each well of the serial dilution plate prepared in step 1, 100 μL of cell media containing 6000 suspended Huh-7 HCV replicon cells was added with a Multidrop workstation. Plates were incubated for 3 days at 37° C. with 5% CO2. Step 3: detection: • 1) with respect to the EC50 assay, the media in a 96-well cell culture plate was aspirated with a Biotek EL405 plate-washer. A volume of 200 μL of a solution containing a 1:1 mixture of a cell-lysis buffer (commercially available from Promega, Luciferase Cell Culture Lysis 5X Reagent, cat. #E1531) and a luciferase substrate solution (commercially available from Promega, Luciferase Assay, cat. #E4550) was added to each well of the plate with Multidrop. The plate was incubated for 30 minutes at room temperature before the luminescence signal was measured with a TopCount plate-reader. • 2) with respect to the CC50 assay, 100 μL of a pre-mixed CellTiter-Glo (commercially available from Promega, cat. #G7572) solution was added directly to the cell culture in each well of the plate and the luminescence signal was measured with a TopCount plate-reader after 10 minutes of incubation at room temperature.
(§4) Results are expressed by the following data: • the 50% effective concentration (EC50), i.e. the concentration that protects 50% of the cell monolayer from virus-induced cythopathic effect. • the 50% cytostatic concentration (CC50), i.e. the concentration that results in 50% inhibition of cell growth.

HCV replicon = assay: Anti-HCV replicon assay (EC50, luciferase readout); format: cell-based, hepatitis C virus; conditions: human hepatoma Huh-7 cell line harbouring a HCV replicon, 3 days incubation, luciferase signal
Protocol: as §1, §2, §3, §4

[1] = CC50 assay (CellTiter-Glo) in Huh-7 HCV replicon cells; format: cell-based, human; conditions: human, 3 days incubation, 50% cytostatic concentration
Protocol: as §1, §2, §3, §4

[2] = Hepatitis C virus, 72 h, read-out: EC50

SMILES	CC50 at 3 days [1]	EC50 (HCV replicon; [2])	also measured
Nc1nc(N2CCOCC2)c2nc(-c3ccc(OC(F)(F)F)cc3)cnc2n1 [Example 86]			CC50 (Huh-7 HCV replicon cells): 10 to 20 µM; EC50 (HCV replicon; read-out: EC50): 0.3 to 1 µM
Nc1nc(N2CCOCC2)c2nc(-c3cccc(F)c3F)cnc2n1 [Example 113, 6-(2,3-difluorophenyl)-4-morpholino-pteridin-2-ylamine]			CC50 (Huh-7 HCV replicon cells): > 20 µM; EC50 (HCV replicon): 1 to 10 µM
Nc1nc(N2CCOCC2)c2nc(-c3ccc(NC(=O)C4CC4)cc3)cnc2n1 [Example 142, Cyclopropane carboxylic acid[4-(2-amino-4-morpholin-4-yl-pteridin-6-yl)-phenyl]-amide]			CC50 (Huh-7 HCV replicon cells): < 10 µM; EC50 (HCV replicon; read-out: EC50): 0.3 to 1 µM
Nc1nc(N)c2nc(-c3cccc(F)c3F)cnc2n1 [Example 143, 6-(2,3-difluoro-phenyl)-pteridine-2,4-diamine]	10 to 20 µM	1 to 10 µM	
Nc1nc(N2CCOCC2)c2nc(-c3ccc(NC(=O)[C@@H](N)CO)cc3)cnc2n1 [Example 144, (S)-2-amino-N-(4-(2-amino-4-morpholinopteridin-6-yl)phenyl)-3-hydroxypropanamide]	> 20 µM	1 to 10 µM	
C[C@H](N)C(=O)Nc1ccc(-c2cnc3nc(N)nc(N4CCOCC4)c3n2)cc1 [Example 145, (S)-2-amino-N-(4-(2-amino-4-morpholinopteridin-6-yl)phenyl)-propanamide]	> 20 µM	0.3 to 1 µM	
COc1nc(N)nc2ncc(-c3ccc(F)cc3)nc12 [Example 149, 6-(4-Fluorophenyl)-4-methoxy-pteridin-2-ylamine]	> 20 µM	0.3 to 1 µM	
CC(C)Oc1nc(N)nc2ncc(-c3ccc(F)cc3)nc12 [Example 150, 6-(4-Fluorophenyl)-4-isopropoxy-pteridin-2-ylamine]	> 20 µM	< 0.3 µM	
CCCCOc1nc(N)nc2ncc(-c3ccc(F)cc3)nc12 [Example 152, 4-Butoxy-6-(4-fluorophenyl)-pteridin-2-ylamine]	> 20 µM	1 to 10 µM	
CC(C)(O)CCOc1nc(N)nc2ncc(-c3ccc(F)cc3)nc12 [Example 154, 4-[2-Amino-6-(4-fluorophenyl)-pteridin-4-yloxy]-2-methyl-butan-2-ol]	> 20 µM		EC50 (HCV replicon; Hepatitis C virus, Huh-7, 72 h): 1 to 10 µM
Nc1nc(OCC2CC2)c2nc(-c3ccc(F)cc3)cnc2n1 [Example 157, 4-Cyclopropylmethoxy-6-(4-fluorophenyl)-pteridin-2-ylamine]	> 20 µM	1 to 10 µM	
CCCOc1nc(N)nc2ncc(-c3ccc(F)cc3)nc12 [Example 159, 6-(4-Fluorophenyl)-4-propoxy-pteridin-2-ylamine]	> 20 µM	1 to 10 µM	
CCSc1nc(N)nc2ncc(-c3ccc(F)cc3)nc12 [Example 164, 4-ethylthio-6-(4-fluorophenyl)-pteridin-2-ylamine]	> 20 µM	0.3 to 1 µM	
